Data: US8354522B2, “Immunostimulatory oligoribonucleotides” (Coley Pharmaceutical GmbH, priority 2005, dated 2013)
Like-named read-outs stand apart in the source and are kept apart here.

Tests used:
Human PBMC = test: Cytokine production upon human PBMC stimulation (ORN complexed to DOTAP, 16 h, ELISA); type: cell-based; set-up: key to IFN-alpha / TNF-alpha: +: cytokine production; −: no cytokine production; details: for IFN-alpha / TNF-alpha: human PBMC stimulated for 16 h, supernatant ELISA; for EC50 / IFN-alpha max activity / TNF-alpha max activity: ORN complexed to DOTAP, 16 h; for EC50: full titration 2 μM to 0.9 nM; for IFN-alpha max activity / TNF-alpha max activity: mean max activity at 0.6 μM, 3-6 blood donors
Description: Human peripheral blood mononuclear cells (PBMCs) were isolated from healthy donors, plated, and stimulated in vitro with various test and control immunostimulatory agents for 16 hours. After 16 hours, the supernatants were collected and then analyzed by ELISA assay. N-U-R1-R2,-Containing Oligoribonucleotides were tested complexed to DOTAP and with full titration curves (7 concentrations), starting from 2 μM ORN complexed to 25 μg/ml DOTAP and with 1/3 dilution steps. Also included were certain negative controls, including medium alone and DOTAP (25 μg/ml culture well; “Liposomes”) alone. The control immunostimulatory agents included the imidazoquinoline R-848 (2 μM with 1/3 dilution steps and 7 concentrations) the reported ligand for TLR7, ORN having TLR8 motifs such as AU and AUU sequences (SEQ ID NO:13-SEQ ID NO:15) ORN having TLR7/8 motifs such as CU, GU and GUU sequences (SEQ ID NO:19-SEQ ID NO:23).
Human PBMC were stimulated with ORN complexed to DOTAP. After 16 hours supernatants were harvested and TNF-alpha and IFN-alpha levels were measured. Mean/Max activities at 0.6 μM of 3-6 blood donors and two individual experiments were determined. […] TLR8 and TLR7/8 ORN are divided by a red line.
Human PBMC were stimulated with ORN complexed to DOTAP. After 16 hours supernatants were harvested and IFN-alpha levels were measured. Mean/Max activities at 0.6 μM and EC50 of full titration curves (range: 2 μM to 0.9 nM) of 3-6 blood donors and two individual experiments were determined. […] Low EC50/high Max activity represents TLR7/8 ORN (FIG. 5a) whereas high EC50 and low Max activity represents TLR8 ORN (FIG. 5b).
The ORN sequences listed in Table 1 were tested for IFN-alpha and TNF-alpha production upon human PBMC stimulation. Human PBMC were stimulated for 16 h with the indicated ORN, and supernatants were harvested and cytokine production measured by ELISA. Table 2 summarizes the min/max activity and EC50 of ORN for IFN-alpha and TNF-alpha production.

isolated pDC = test: IFN-alpha production upon isolated pDC stimulation; type: cell-based, human; details: 0.5 μM ORN complexed to 10 μg/ml DOTAP, 16 h
Description: FIG. 2 is a set of bar graphs depicting ORN induced cytokine production upon isolated pDC (FIG. 2a), monocytes (FIG. 2b) and mDC (FIG. 2c) stimulation. Cells were stimulated with 0.5 μM ORN complexed to 10 μg/ml DOTAP, 0.5 μM CpG ODN or DOTAP or media alone and IFN-alpha (FIG. 2a), TNF-alpha […] and IL-12p40 (FIG. 2c) were measured.
A similar assay testing different ORN sequences was performed using isolated pDC, monocytes and mDC stimulation. Cells were stimulated with 0.5 μM ORN complexed to 10 μg/ml DOTAP, 0.5 μM CpG ODN or DOTAP or media alone. After 16 h the supernatants were harvested and IFN-alpha, TNF-alpha and IL-12p40 levels were measured by ELISA.

Bovine PBMC = test: Cytokine production by bovine PBMC (48 hours, ELISA); type: cell-based; details: 10 μg/ml (H.D.) and 2.5 μg/ml (L.D.)
Description: FIG. 11 is a set of bar graphs showing differences between TLR8 ORN (SEQ ID NO:13) and TLR7/8 ORN (SEQ ID NO:21). SEQ ID NO:5 ORN was used as a control. Bovine PBMC were incubated with either 10 μg/ml ORN (HD) or 2.5 μg/ml ORN (LD) for 48 hours. Supernatants were collected and analyzed by ELISA. FIGS. 11a-c show the level of IL-12, IFN-γ, and TNF-alpha, respectively.
The assay was repeated with a TLR8 ORN (SEQ ID NO:13), a TLR 7/8 ORN (SEQ ID NO:21) and a control ORN (SEQ ID NO:5) (Table 3) at both a high dose (H.D., 10 μg/ml) and a low dose (L.D., 2.5 μg/ml).

[1] = human PBMC, read-out: IFN-alpha EC50
[2] = human PBMC, read-out: TNF-alpha EC50

Substance	IFN-alpha (Human PBMC)	TNF-alpha (Human PBMC)	further results
A*U*A*U*A*U*A*U*A*U*A*U*A*U*A*U*A*U*A*U (AUAUAUAUAUAUAUAUAUAU; chemistry not fully specified) [SEQ ID NO: 12]	−	+	IFN-alpha production upon PBMC stimulation (in words) (Human PBMC; human PBMC): no IFN-alpha cytokine production; IFN-alpha production upon pDC stimulation (in words) (isolated pDC): no IFN-alpha cytokine production
C*C*G*A*G*C*C*G*C*U*A*U*U*C*C*C (CCGAGCCGCUAUUCCC; listed as RNA, chemistry not fully specified) [SEQ ID NO: 51]			EC50 (Human PBMC; [1]): 582 nM; EC50 (Human PBMC; [2]): 125 nM; IFN-alpha max activity (Human PBMC; human PBMC): 2615 pg/mL; TNF-alpha max activity (Human PBMC; human PBMC): 23325 pg/mL
C*C*G*A*G*C*C*G*C*U*U*A*A*C*C*C (CCGAGCCGCUUAACCC; listed as RNA, chemistry not fully specified) [SEQ ID NO: 49]			EC50 (Human PBMC; [1]): 375 nM; EC50 (Human PBMC; [2]): 350 nM; IFN-alpha max activity (Human PBMC; human PBMC): 3367 pg/mL; TNF-alpha max activity (Human PBMC; human PBMC): 18039 pg/mL
C*C*G*A*G*C*C*G*C*U*U*A*C*C*C*C (CCGAGCCGCUUACCCC; listed as RNA, chemistry not fully specified) [SEQ ID NO: 53]			EC50 (Human PBMC; [1]): 244 nM; EC50 (Human PBMC; [2]): 952 nM; IFN-alpha max activity (Human PBMC; human PBMC): 3091 pg/mL; TNF-alpha max activity (Human PBMC; human PBMC): 14623 pg/mL
C*C*G*U*C*U*G*U*U*G*U*G*U*G*A*C*U*C (CCGUCUGUUGUGUGACUC; listed as RNA, chemistry not fully specified) [SEQ ID NO: 5, reference compound]			IFN-γ production (Bovine PBMC): stimulated production of IFN-γ
C*U*A*C*U*A*C*U*A*C*U*A*C*U*A*C*U*A*C*U (CUACUACUACUACUACUACU; listed as RNA, chemistry not fully specified) [SEQ ID NO: 24]	−	+	IFN-alpha production upon PBMC stimulation (in words) (Human PBMC; human PBMC): no IFN-alpha production; TNF-alpha production upon PBMC stimulation (in words) (Human PBMC; human PBMC): TNF-alpha inducing
C*U*A*G*G*C*A*C (CUAGGCAC; phosphorothioate linkages, chemistry not fully specified) [SEQ ID NO: 3]	−	+	
C*U*C*U*C*U*C*U*C*U*C*U*C*U*C*U*C*U*C*U (CUCUCUCUCUCUCUCUCUCU; listed as RNA, chemistry not fully specified) [SEQ ID NO: 19]	+	+	
G*C*C*A*C*C*G*A*G*C*C*G*A*A*U*A*U*A*C*C (GCCACCGAGCCGAAUAUACC; listed as RNA, chemistry not fully specified) [SEQ ID NO: 11]	−	+	
G*U*A*G*G*C*A*C (GUAGGCAC; phosphorothioate linkages, chemistry not fully specified) [SEQ ID NO: 1]	−	+	
G*U*A*G*U*A*G (GUAGUAG; phosphorothioate linkages, chemistry not fully specified) [SEQ ID NO: 34]	+	+	
G*U*A*G*U*A*G*U*A*G*U*A*G*U*A*G*U*A*G*U (GUAGUAGUAGUAGUAGUAGU; listed as RNA, chemistry not fully specified) [SEQ ID NO: 25]	+	+	
G*U*C*G*U*C*G*U*C*G*U*C*G*U*C*G*U*C*G*U (GUCGUCGUCGUCGUCGUCGU; listed as RNA, chemistry not fully specified) [SEQ ID NO: 26]	+	+	
G*U*G*U*G*U*G*U*G*U*G*U*G*U*G*U*G*U*G*U (GUGUGUGUGUGUGUGUGUGU; listed as RNA, chemistry not fully specified) [SEQ ID NO: 20]	+	+	
I*U*A*I*U*A*I*U*A*I*U*A*I*U*A*I*U*A*I*U (NUANUANUANUANUANUANU; inosine, phosphorothioate linkages, chemistry not fully specified) [SEQ ID NO: 27]	+	+	
U*A*U*A*U*A*U (UAUAUAU; phosphorothioate linkages, chemistry not fully specified) [SEQ ID NO: 33]	−	+	
U*C*U*C*U*C*U (UCUCUCU; phosphorothioate linkages, chemistry not fully specified) [SEQ ID NO: 32]	+	+	
U*G*U*G*U*G*U (UGUGUGU; phosphorothioate linkages, chemistry not fully specified) [SEQ ID NO: 31]	+	+	
U*U*A*G*G*C*A*C (UUAGGCAC; phosphorothioate linkages, chemistry not fully specified) [SEQ ID NO: 2]	−	+	
U*U*A*U*U*A*U (UUAUUAU; phosphorothioate linkages, chemistry not fully specified) [SEQ ID NO: 30]	−	+	
U*U*G*U*U*G*U (UUGUUGU; phosphorothioate linkages, chemistry not fully specified) [SEQ ID NO: 29]	+	+	
U*U*I*U*U*I*U*U*I*U*U*I*U*U*I*U*U*I*U*U (UUNUUNUUNUUNUUNUUNUU; inosine, phosphorothioate linkages, chemistry not fully specified) [SEQ ID NO: 28]	+	+	
U*U*U*A*U*U*U*A*U*U*U*A*U*U*U*A*U*U*U*A (UUUAUUUAUUUAUUUAUUUA; chemistry not fully specified) [SEQ ID NO: 14]	+	+	IFN-alpha production upon PBMC stimulation (in words) (Human PBMC; human PBMC): induced IFN-alpha production
U*U*U*G*U*U*U*G*U*U*U*G*U*U*U*G*U*U*U*G (UUUGUUUGUUUGUUUGUUUG; listed as RNA, chemistry not fully specified) [SEQ ID NO: 22]	+	+	
U*U*U*U*A*U*U*U*U*A*U*U*U*U*A*U*U*U*U*A (UUUUAUUUUAUUUUAUUUUA; chemistry not fully specified) [SEQ ID NO: 15]	+	+	IFN-alpha production upon PBMC stimulation (in words) (Human PBMC; human PBMC): induced IFN-alpha production
U*U*U*U*G*U*U*U*U*G*U*U*U*U*G*U*U*U*U*G (UUUUGUUUUGUUUUGUUUUG; listed as RNA, chemistry not fully specified) [SEQ ID NO: 23]	+	+	
dN*dN*dN*dN*dN*A*U*A*U*A*U*A*U*dN*dN*dN*dN*dN*dN [SEQ ID NO: 9]	−	+	
dN*dN*dN*dN*dN*N*A*U*A*U*N*N*dN*dN*dN*dN*dN*dN [SEQ ID NO: 7]	−	+	
